Measurements: patent US12590093B2, “Indolo[2′,3′:3,4]pyrido[2,1-b]quinazoline compound and use thereof” (INSTITUTE OF MEDICINAL BIOTECHNOLOGY CHINESE ACADEMY OF …, priority 2019, dated 2026)

Legend:
ABCA1 [1] = assay: ABCA1 protein expression in liver of ApoE−/− mice; assay type: in vivo; details: FIG. 10
Description: 6-week-old male C57/BL6 ApoE^−/− mice were fed on normal chaw diet for one week. The mice were randomly divided into three groups (control group, high-fat diet model group, and treatment group, 12 mice per group) according to the body weight. From 7-week-old, the high-fat diet model group and the treatment group were fed on a high fat diet (HFD) (0.15% cholesterol and 20% fat), and the control group was fed on normal chow diet. The treatment group (R3) mice were administered intragastrically with TR3 (5 mg/kg). The control group and the high-fat diet model group mice were intragastrically administered with sodium carboxymethylcellulose (CMC-Na) solution. After 12 weeks of administration, all mice were fasted overnight. The blood sample was taken from the retro-orbital plexus, collected in a EP tube, and then centrifuged for 15 min (2500 rpm). The centrifuged serum (upper layer) was transferred to new EP tubes (divided into two aliquots) and stored at −20° C. for further use. […]
When animal tissues were used to prepare protein samples, the tissues were firstly homogenized and lysed in the RIPA lysis buffer. […] When cell supernatants were used to prepare protein samples, the supernatants were freeze-dried, needed to be extracted using a protein recovery kit (Applygen, Beijing, China), and then analyzed by western-blot.

ApoE^−/− mice = assay: Serum inflammatory factor levels in ApoE−/− mice (ELISA); assay type: in vivo; details: 5 mg/kg intragastrically, 12 weeks, HFD
Description: 6-week-old male C57/BL6 ApoE^−/− mice were fed on normal chaw diet for one week. The mice were randomly divided into three groups (control group, high-fat diet model group, and treatment group, 12 mice per group) according to the body weight. From 7-week-old, the high-fat diet model group and the treatment group were fed on a high fat diet (HFD) (0.15% cholesterol and 20% fat), and the control group was fed on normal chow diet. The treatment group (R3) mice were administered intragastrically with TR3 (5 mg/kg). The control group and the high-fat diet model group mice were intragastrically administered with sodium carboxymethylcellulose (CMC-Na) solution. After 12 weeks of administration, all mice were fasted overnight. The blood sample was taken from the retro-orbital plexus, collected in a EP tube, and then centrifuged for 15 min (2500 rpm). The centrifuged serum (upper layer) was transferred to new EP tubes (divided into two aliquots) and stored at −20° C. for further use. The mice were fixed, and the skin was cut open along the midline of the abdomen to the neck. The abdominal cavity was cut open to collect the fresh liver tissue. The Liver tissue was put into 3 freezing tubes, and then immediately put into liquid nitrogen for subsequent detection of liver lipid detection and extraction of RNA and protein. The thorax was cut open to expose the heart. The heart was perfused with 10 ml PBS, and then fixed by perfusion with 4% paraformaldehyde solution until the liver turned white. The fixed liver was taken out and placed in a six-well plate containing 4% paraformaldehyde solution for further fixation. The full-length aorta (from the ascending aorta to the common iliac arteries) was isolated and placed in a six-well plate containing 4% paraformaldehyde solution. The aorta was fixed in 4% paraformaldehyde solution overnight and then stored in 20% sucrose solution at 4° C.
The levels of IL-1β, IL-18, IL-6, TNF-α and IL-10 in the serum of ApoE^−/− mice were measured by using the corresponding ELISA kits (Nanjing Sen Bei Jia Biotechnology Co., Ltd., Nanjing, China). Standard dilution and addition: the standard was diluted by gradient, and 10 wells on the coated ELISA plate were set for standard addition. Sample addition: blank wells and sample wells were set separately. The sample wells of the coated ELISA plates were first added with 40 μL sample diluent, and then added 10 μL sample (the final dilution of the sample is 5-fold). […] Assay detection: the absorbance at 450 nm of each well was read with the absorbance at 450 nm of the blank well as zero, and this process was performed within 15 min after the stop solution was added.

ABCA1 [2] = assay: ABCA1 up-regulation, luciferase reporter in ABCA1P-LUC HepG2 cells; assay type: cell-based; details: Homo sapiens, 18 h, maximum up-regulation fold of luciferase activity versus DMSO, read-out: ABCA1 max
Description: Experiments were conducted to detect whether the compounds of the disclosure can pharmacologically up-regulate the expression of ABCA1 and SR-BI. Firstly, ABCA1P-LUC HepG2 cells or SR-BI-LUC HepG2 cells in logarithmic growth phase were digested, diluted in cell culture medium, and counted. Cells were seeded into 96-well plates at a density of 5×10^5/ml (100 μL of the single-cell suspension per well). After cells fully adhered (about 6 h), the medium containing 10% FBS was removed, and the cells were gently washed with PBS. Serum free MEM-EBSS medium (200 μL per test well) and 2 μL of the compounds to be tested (at a final concentration of 10 μg/mL) were added to each test well, and meanwhile, DMSO at a corresponding concentration was added to the control well. After 18-24 h, the medium was removed. Cell Luciferase activity was measured by a method as described in the Luciferase Assay System. By optimizing the final concentration of DMSO, the treatment time of the compounds on the cells and the number of cells seeded into each well during the screening, the final screening conditions were determined as follows: each well is seeded with 5×10^4 cells, DMSO is added at a final concentration of 1%, and the sample is treated for 18 h.
The ratio of change of luciferase activity is calculated with the following formula: Ratio of change (%)=A/B×100;
wherein A is the luciferase activity (RLU) measured after the compound to be tested is added, and B is the luciferase activity (RLU) measured after the blank control (DMSO) is added. The luciferase activity of cells in each well was measured, and the dose-effect relationship between the concentration of the compound and the ratio of change of the luciferase activity was determined to calculate the EC50.

AMPK = AMPK level in RAW 264.7 cells by western-blot; assay type: cell-based, Murine; details: 1 μM, 18-24 h treatment, FIG. 11
Description: Murine macrophages RAW 264.7 cells were subcultured about every 48 h. When the cells were approximately 100% confluent, the old culture medium was removed, and the cells were washed with PBS and digested with trypsin at an appropriate amount for about 2 min at RT. After the digestion solution was removed, the RPMI-1640 complete medium containing 10% FBS was added immediately to inhibit the activity of trypsin. The cells in the culture flask were repeatedly and gently blown with a curved straw, so that they were completely detached from the bottom of the flask and dispersed into the single-cell suspension. The cells were seeded into a new cell flask at a density of 1:4-1:6, and added with an appropriate amount of the complete medium. The flask was placed in an incubator and cultured at 37° C., 5% CO2. RAW264.7 cells were pretreated with si-AMPK (AMPK siRNA) for 24 h, and then treated with compound TR3 (1 μM) for 24 h. The expression of ABCA1 and AMPK was detected by western-blot.
The effect of TR3 on AMPK was detected by western-blot.

SMILES: c1ccc2c(c1)CN1CCc3c([nH]c4ccccc34)C1=N2 [TR3, 5,7,8,13-tetrahydroindolo[2′,3′:3,4]pyrido[2,1-b]quinazoline]
- expression of ABCA1 in the liver (ABCA1 [1]): increased
- level of IL-1β in mouse serum (ApoE^−/− mice): decreased the levels of IL-1β, IL-18 and IL-6 significantly
- level of IL-6 in mouse serum (ApoE^−/− mice): decreased the levels of IL-1β, IL-18 and IL-6 significantly
- level of IL-18 in mouse serum (ApoE^−/− mice): decreased the levels of IL-1β, IL-18 and IL-6 significantly
- level of TNF-α in mouse serum (ApoE^−/− mice): decreased the levels of IL-1β, IL-18 and IL-6 significantly and the level of TNF-α slightly
- maximal fold induction (ABCA1 [2]): 2.26
- AMPK level (AMPK): significantly up-regulated
